Experimental findings from ChEMBL document CHEMBL3132769, “Fragment growing to retain or alter the selectivity of anchored kinase hinge-binding fragments” (Medchemcomm, 2014) are described below.

For assay [1], the target named is T1, Inhibitor of nuclear factor kappa-B kinase subunit beta (Homo sapiens) (UniProt O14920).
T1 sequence (whole entry): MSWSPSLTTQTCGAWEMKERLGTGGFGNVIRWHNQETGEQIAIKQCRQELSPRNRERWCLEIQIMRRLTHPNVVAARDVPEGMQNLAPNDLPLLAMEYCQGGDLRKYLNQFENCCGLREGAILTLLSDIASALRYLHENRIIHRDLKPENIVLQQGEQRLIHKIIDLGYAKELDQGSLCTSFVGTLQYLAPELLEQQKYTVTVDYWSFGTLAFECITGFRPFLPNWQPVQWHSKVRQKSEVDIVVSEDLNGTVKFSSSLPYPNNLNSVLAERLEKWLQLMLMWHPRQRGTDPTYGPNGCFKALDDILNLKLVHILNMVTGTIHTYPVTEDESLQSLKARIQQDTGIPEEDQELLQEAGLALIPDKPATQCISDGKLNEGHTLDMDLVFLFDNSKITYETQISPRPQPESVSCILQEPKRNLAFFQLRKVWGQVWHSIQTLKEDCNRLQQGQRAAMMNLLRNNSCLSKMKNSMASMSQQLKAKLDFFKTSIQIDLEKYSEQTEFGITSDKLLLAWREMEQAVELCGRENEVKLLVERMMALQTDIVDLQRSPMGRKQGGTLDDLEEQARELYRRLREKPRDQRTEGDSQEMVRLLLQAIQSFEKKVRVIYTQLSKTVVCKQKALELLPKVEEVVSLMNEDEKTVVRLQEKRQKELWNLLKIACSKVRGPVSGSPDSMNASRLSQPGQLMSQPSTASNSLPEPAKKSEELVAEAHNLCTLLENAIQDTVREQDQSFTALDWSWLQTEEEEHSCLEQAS
The assay can be described thus: Inhibition of human full length IKK beta expressed in baculovirus assessed as substrate phosphorylation using fluorescence-labelled peptides as substrate at 2 uM after 90 mins by microfluidic peptide phosphorylation assay.

The target of assay [2] is Mitogen-activated protein kinase kinase kinase kinase 4 (Homo sapiens) (UniProt O95819). The assay can be described thus: Inhibition of human HGK catalytic domain expressed in baculovirus assessed as substrate phosphorylation using fluorescence-labelled peptides as substrate at 420 uM after 90 mins by microfluidic peptide phosphorylation assay.
The target in assay [3] is Calcium/calmodulin-dependent protein kinase type II subunit delta (Homo sapiens) (UniProt Q13557). The assay is described as follows: Inhibition of human full length CAMK2D expressed in baculovirus assessed as substrate phosphorylation using fluorescence-labelled peptides as substrate at 420 uM after 90 mins by microfluidic peptide phosphorylation assay.
Assay [4] deals with Casein kinase I isoform delta (Homo sapiens) (UniProt P48730). The assay can be described thus: Inhibition of human CK1D catalytic domain expressed in Escherichia coli cell assessed as substrate phosphorylation using fluorescence-labelled peptides as substrate at 1000 uM after 90 mins by microfluidic peptide phosphorylation assay.
The target of assay [5] is Insulin-like growth factor 1 receptor (Homo sapiens) (UniProt P08069). The assay can be described thus: Inhibition of human IGF1R catalytic domain expressed in baculovirus assessed as substrate phosphorylation using fluorescence-labelled peptides as substrate at 1000 uM after 90 mins by microfluidic peptide phosphorylation assay.

Sequence of Casein kinase I isoform delta (Homo sapiens) (P48730 whole entry, looked up, the tested form may be a part, canonical isoform): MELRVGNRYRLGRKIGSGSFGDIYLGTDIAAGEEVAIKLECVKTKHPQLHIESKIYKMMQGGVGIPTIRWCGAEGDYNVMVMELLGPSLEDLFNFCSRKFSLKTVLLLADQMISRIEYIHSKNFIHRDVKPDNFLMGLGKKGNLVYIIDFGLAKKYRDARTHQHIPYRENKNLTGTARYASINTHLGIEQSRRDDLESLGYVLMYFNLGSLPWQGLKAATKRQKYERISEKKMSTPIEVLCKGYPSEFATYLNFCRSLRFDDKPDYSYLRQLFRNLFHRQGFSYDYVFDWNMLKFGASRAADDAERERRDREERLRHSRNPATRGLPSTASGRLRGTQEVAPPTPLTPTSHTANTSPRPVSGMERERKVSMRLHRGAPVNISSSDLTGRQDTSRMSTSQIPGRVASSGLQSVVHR
Sequence of Mitogen-activated protein kinase kinase kinase kinase 4 (Homo sapiens) (O95819 2-1239 limits assumed): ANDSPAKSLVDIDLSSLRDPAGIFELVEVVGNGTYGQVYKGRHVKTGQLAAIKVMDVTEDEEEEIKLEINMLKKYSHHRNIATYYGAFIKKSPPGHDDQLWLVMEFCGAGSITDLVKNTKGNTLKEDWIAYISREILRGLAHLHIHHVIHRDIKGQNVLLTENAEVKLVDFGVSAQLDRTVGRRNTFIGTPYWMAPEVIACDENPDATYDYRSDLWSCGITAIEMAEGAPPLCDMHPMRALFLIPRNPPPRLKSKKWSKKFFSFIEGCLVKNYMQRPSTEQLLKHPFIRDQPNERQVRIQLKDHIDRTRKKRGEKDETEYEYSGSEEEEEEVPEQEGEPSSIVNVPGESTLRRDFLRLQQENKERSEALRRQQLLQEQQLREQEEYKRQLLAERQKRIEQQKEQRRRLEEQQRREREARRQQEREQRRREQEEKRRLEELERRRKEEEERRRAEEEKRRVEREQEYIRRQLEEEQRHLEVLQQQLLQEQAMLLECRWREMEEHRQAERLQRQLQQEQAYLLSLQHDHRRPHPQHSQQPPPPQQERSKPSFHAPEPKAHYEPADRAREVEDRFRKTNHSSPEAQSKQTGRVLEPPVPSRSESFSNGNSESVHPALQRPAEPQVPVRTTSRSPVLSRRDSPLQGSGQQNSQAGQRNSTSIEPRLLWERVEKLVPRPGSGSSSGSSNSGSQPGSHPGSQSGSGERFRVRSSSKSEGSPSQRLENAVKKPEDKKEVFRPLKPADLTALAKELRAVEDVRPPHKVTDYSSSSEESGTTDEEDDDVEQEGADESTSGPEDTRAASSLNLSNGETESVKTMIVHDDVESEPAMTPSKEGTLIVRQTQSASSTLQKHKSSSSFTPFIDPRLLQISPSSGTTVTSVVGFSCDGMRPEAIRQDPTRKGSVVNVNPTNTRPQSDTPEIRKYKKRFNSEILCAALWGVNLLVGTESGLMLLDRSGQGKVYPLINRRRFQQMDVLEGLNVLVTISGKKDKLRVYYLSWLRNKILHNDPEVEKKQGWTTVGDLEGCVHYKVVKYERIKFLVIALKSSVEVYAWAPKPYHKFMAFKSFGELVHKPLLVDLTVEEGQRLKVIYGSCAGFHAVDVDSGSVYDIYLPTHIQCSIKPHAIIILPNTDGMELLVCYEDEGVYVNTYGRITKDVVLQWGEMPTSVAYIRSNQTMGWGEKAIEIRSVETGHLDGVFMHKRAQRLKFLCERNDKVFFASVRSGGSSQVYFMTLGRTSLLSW
Sequence of Calcium/calmodulin-dependent protein kinase type II subunit delta (Homo sapiens) (Q13557 whole entry, the tested form may be a part, canonical isoform): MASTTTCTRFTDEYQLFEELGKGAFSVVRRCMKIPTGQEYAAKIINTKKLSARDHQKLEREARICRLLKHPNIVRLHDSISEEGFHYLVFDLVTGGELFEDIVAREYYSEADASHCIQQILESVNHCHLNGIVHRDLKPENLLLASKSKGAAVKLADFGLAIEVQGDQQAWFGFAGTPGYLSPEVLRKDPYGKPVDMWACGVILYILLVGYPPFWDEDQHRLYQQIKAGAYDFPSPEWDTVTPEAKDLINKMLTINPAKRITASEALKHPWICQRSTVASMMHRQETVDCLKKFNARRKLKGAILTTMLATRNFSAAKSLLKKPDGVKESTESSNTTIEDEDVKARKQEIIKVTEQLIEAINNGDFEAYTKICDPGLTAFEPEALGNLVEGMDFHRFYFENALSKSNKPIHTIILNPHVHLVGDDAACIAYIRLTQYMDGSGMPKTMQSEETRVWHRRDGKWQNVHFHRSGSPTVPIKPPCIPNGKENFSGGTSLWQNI

The term inhibition denotes the drop in the measured response relative to a control, in per cent. Consider `NC1CCN(c2ncnc3[nH]ccc23)CC1`, for which the inhibition in assay [1] came to 1%.

Turning to `c1nc(N2CCOCC2)c2nc[nH]c2n1`, the values for the inhibition in assay [2] and in assay [3] were 78.5% and 63.5%, respectively.

Consider `c1cnc2[nH]ccc2c1`, for which the results for the inhibition in assay [4] and in assay [5] were 94.5% and 51.5%, respectively.
